Measured values taken from patent US12396461B2, “Functional peptides having antimicrobial activity against phytopathogenic microorganisms” (TOYOTA JIDOSHA KABUSHIKI KAISHA, priority 2019, dated 2025).
Read-outs that look alike come from different tables or passages of the source.

Columns and labels:
Type in all cases: cell-based
[1] = test system: Colletotrichum orbiculare; design: key to Plate antimicrobial activity test Colletotrichum orbiculare, level: a case where hyphae extended to the entire well and no antimicrobial activity was found is defined as “level 0,”; a case where hyphae extended to less than a half of the well and thus the peptide inhibited the growth of the hyphae is defined as “level 1,”; a case where ungerminated spores were present and the peptide partially inhibited the germination is defined as “level 2,”; a case where all spores were ungerminated and the peptide completely inhibited the germination is defined as “level 3.”; details: 25° C. for 1 day or 2 days, microscopic observation
Pyricularia oryzae = test system: Pyricularia oryzae; design: key to Plate antimicrobial activity test Pyricularia oryzae, level: a case where hyphae extended to the entire well and no antimicrobial activity was found is defined as “level 0,”; a case where hyphae extended to less than a half of the well and thus the peptide inhibited the growth of the hyphae is defined as “level 1,”; a case where ungerminated spores were present and the peptide partially inhibited the germination is defined as “level 2,”; a case where all spores were ungerminated and the peptide completely inhibited the germination is defined as “level 3.”; details: 25° C. for 1 day or 2 days, microscopic observation
Fusarium oxysporum = test system: Fusarium oxysporum; design: key to Plate antimicrobial activity test Fusarium oxysporum, level: a case where hyphae extended to the entire well and no antimicrobial activity was found is defined as “level 0,”; a case where hyphae extended to less than a half of the well and thus the peptide inhibited the growth of the hyphae is defined as “level 1,”; a case where ungerminated spores were present and the peptide partially inhibited the germination is defined as “level 2,”; a case where all spores were ungerminated and the peptide completely inhibited the germination is defined as “level 3.”
[2] = test system: Colletotrichum destructivum; design: key to Plate antimicrobial activity test Colletotrichum destructivum, level: a case where hyphae extended to the entire well and no antimicrobial activity was found is defined as “level 0,”; a case where hyphae extended to less than a half of the well and thus the peptide inhibited the growth of the hyphae is defined as “level 1,”; a case where ungerminated spores were present and the peptide partially inhibited the germination is defined as “level 2,”; a case where all spores were ungerminated and the peptide completely inhibited the germination is defined as “level 3.”; details: 25° C. for 1 day or 2 days, microscopic observation
Botrytis cinerea = test system: Botrytis cinerea; design: key to Plate antimicrobial activity test Botrytis cinerea, level: a case where hyphae extended to the entire well and no antimicrobial activity was found is defined as “level 0,”; a case where hyphae extended to less than a half of the well and thus the peptide inhibited the growth of the hyphae is defined as “level 1,”; a case where ungerminated spores were present and the peptide partially inhibited the germination is defined as “level 2,”; a case where all spores were ungerminated and the peptide completely inhibited the germination is defined as “level 3.”; details: 25° C. for 1 day or 2 days, microscopic observation

Row | Substance | Plate antimicrobial activity test Colletotrichum orbiculare, level ([1]; peptide 1 μM) | Plate antimicrobial activity test Colletotrichum orbiculare, level ([1]; peptide 10 μM) | Plate antimicrobial activity test Colletotrichum orbiculare, level ([1]; peptide 100 μM) | Plate antimicrobial activity test Pyricularia oryzae, level (Pyricularia oryzae; peptide 1 μM) | Plate antimicrobial activity test Pyricularia oryzae, level (Pyricularia oryzae; peptide 10 μM) | Plate antimicrobial activity test Pyricularia oryzae, level (Pyricularia oryzae; peptide 100 μM) | Plate antimicrobial activity test Fusarium oxysporum, level (Fusarium oxysporum) | Plate antimicrobial activity test Colletotrichum destructivum, level ([2]; peptide 1 μM) | Plate antimicrobial activity test Colletotrichum destructivum, level ([2]; peptide 10 μM) | Plate antimicrobial activity test Colletotrichum destructivum, level ([2]; peptide 100 μM) | Plate antimicrobial activity test Botrytis cinerea, level (Botrytis cinerea; peptide 1 μM) | Plate antimicrobial activity test Botrytis cinerea, level (Botrytis cinerea; peptide 10 μM) | Plate antimicrobial activity test Botrytis cinerea, level (Botrytis cinerea; peptide 100 μM)
1 | KNKKV (listed as Solanum lycopersicum) [TsORF6-1-5aa-12, partial peptide of TsORF6-1, 5 amino acid residues] | 0 | 0 | 0 | 0 | 0 | 0 | 0 | 0 | 0 | 0 | 0 | 0 | 0
2 | KNKKVAKM (listed as Solanum lycopersicum) [TsORF6-1-8aa-12, partial peptide of TsORF6-1, 8 amino acid residues] | 0 | 0 | 0 | 0 | 0 | 0 | 0 | 0 | 0 | 0 | 0 | 0 | 0
3 | KTKVK (listed as Solanum lycopersicum) [TsORF6-1-5aa-8, partial peptide of TsORF6-1, 5 amino acid residues] | 0 | 0 | 0 | 0 | 0 | 0 | 0 | 0 | 0 | 0 | 0 | 0 | 0
4 | KTKVKNKK (listed as Solanum lycopersicum) [TsORF6-1-8aa-8, partial peptide of TsORF6-1, 8 amino acid residues] | 0 | 0 | 0 | 0 | 0 | 0 | 0 | 0 | 0 | 0 | 0 | 0 | 1
5 | KVAKMMVK (listed as Solanum lycopersicum) [TsORF6-1-8aa-15, partial peptide of TsORF6-1, 8 amino acid residues] | 0 | 0 | 0 | 0 | 0 | 0 | 0 | 0 | 0 | 0 | 0 | 0 | 0
6 | KVKNKKVA (listed as Solanum lycopersicum) [TsORF6-1-8aa-10, partial peptide of TsORF6-1, 8 amino acid residues] | 0 | 0 | 0 | 0 | 0 | 0 | 0 | 0 | 0 | 0 | 0 | 0 | 0
7 | MIVVK (listed as Solanum lycopersicum) [TsORF6-1-5aa-4, partial peptide of TsORF6-1, 5 amino acid residues] | 0 | 0 | 1 | 0 | 0 | 1 | 0 | 0 | 0 | 1 | 0 | 0 | 1
8 | MIVVKTKV (listed as Solanum lycopersicum) [TsORF6-1-8aa-4, partial peptide of TsORF6-1, 8 amino acid residues] | 0 | 0 | 0 | 0 | 0 | 0 | 0 | 0 | 0 | 0 | 0 | 0 | 0
9 | NKKVA (listed as Solanum lycopersicum) [TsORF6-1-5aa-13, partial peptide of TsORF6-1, 5 amino acid residues] | 0 | 0 | 0 | 0 | 0 | 0 | 0 | 0 | 0 | 0 | 0 | 0 | 0
